Measured values taken from patent US20110263478A1, “SUR1 INHIBITORS FOR THERAPY” (priority 2008, published 2011).

Tests used:
[1] = tested on: rats with subarachnoid hemorrhage (SAH); test: Rat SAH model: immunohistochemistry of inferomedial cortex and posterior cerebral artery; type: in vivo; conditions: 24 hr after SAH
Description: Model of SAH. All surgical procedures were approved by the Institutional Animal Care and Use Committee of the University of Maryland. […] Fasted male Wistar rats (225-275 gm; Harlan, Indianapolis, Ind.) were anesthetized (ketamine, 60 mg/kg and xylazine, 7.5 mg/kg, intraperitoneally) and allowed to ventilate air spontaneously. Temperature was maintained at 37° C. using a heating pad regulated by a rectal temperature sensor (Harvard Apparatus, Holliston, M A). The laser Doppler flowmetry (LDF) probe (MoorLab, Moore Instruments, Sussex, UK) was affixed to the skull. The right carotid sheath was exposed through a ventral midline incision, the common, external and internal carotid arteries (CCA, ECA, ICA) were dissected, and the pterygopalatine artery was ligated. Typical blood gases (i-STAT, Heska Corp, Fort Collins, Colo.), sampled from the CCA before injury, were pO2>90 mm Hg, pCO2<47 mm Hg, and glucose 150-200 mg/dl.
The model of SAH involved a single endovascular puncture of the ICA using a 4-0 filament sharpened at its tip, followed by reperfusion of the ICA (Schwartz et al. 2000). With temporary clips on the CCA and ICA, the ECA was divided proximal to the ligature, the 4-0 nylon filament was introduced through the stump of the ECA into the ICA, arterial puncture was produced at ˜19 mm under LDF monitoring, the filament was withdrawn, the ECA stump was ligated and flow was restored to the CCA/ICA. Unlike the widely used method in which a 3-0 filament is used to produce severe hemorrhage associated with high mortality, the method used here utilizing a 4-0 filament produced mild-tomoderate SAH associated with low mortality. We monitored rCBF using LDF to confirm the sharp drop after puncture and filament withdrawal, and to assure the full recovery in rCBF within 10-15 min of restoration of flow in the ICA, making ischemic injury less likely than in versions of the model in which the CCA is ligated.
Controls received the same volume of vehicle in the same way. […] The osmotic mini-pumps delivered 0.5 μl/hr, yielding infusion doses of 200 ng/hr.
Rats were euthanized 24 hr after induction of SAH. In some cases, fresh tissues were collected for immunoblot. In other cases, animals underwent perfusion fixation for immunohistochemistry or in situ hybridization.
Immunohistochemistry. Cryosections (10 μm) were post-fixed with 4% formaldehyde and immunolabeled using standard techniques. After permeabilizing (0.3% Triton X-100 for 10 min), sections were blocked (2% donkey serum for 1 hr; Sigma D-9663), then incubated with primary antibody directed against: SUR1 (1:200; SC-5789; Santa Cruz Biotechnology); NeuN (1:100; MAB377; Chemicon, CA); GFAP (1:500; CY3 conjugated; C-9205; Sigma, St. Louis, Mo.); vonWillebrand factor (1:200; F3520, Sigma); TNFα (1:100; Santa Cruz); p65 (1:100; Santa Cruz); FITC-conjugated IgG (1:200; Santa Cruz); ZO-1 (1:100; Zymed Laboratories). Fluorescent-labeled, species appropriate secondary antibodies (Molecular Probes, OR) were used for visualization. Omission of primary antibody and competition with antigenic peptides, when available, were used as negative controls. Fluorescent signals were visualized using epifluorescence microscopy (Nikon Eclipse E1000).
For quantitative immunohistochemistry, all sections were immunolabeled as a single batch, as previously described (Gerzanich et al. 2003). All images were collected using uniform parameters of magnification and exposure. Segmentation analysis was performed by computing a histogram of the pixel intensity for equal regions of interest (ROI) using IP Lab software, with the ROI confined to the 400 μm of parenchymal tissue dorsal to the pia of the inferomedial cortex ipsilateral to the SAH. For IgG, the overall pixel intensity of the ROI was determined and the background was subtracted. […]

rats with percussion-TBI = test: Percussion-TBI rats: neurobehavioral function (SFU, SVE); type: in vivo, rat
From the text: Young adult male Long-Evans rats, 240-280 gm, were studied. Rats were anesthetized (Ketamine and Xylazine) and physiological parameters including temperature and blood gases were maintained within appropriate physiological ranges. With the head fixed in a stereotaxic frame, a 6-mm circular craniectomy was created abutting the sagittal and lambdoidal sutures. A posterior location was chosen to emphasize damage to underlying hippocampus (Vink et al., 2001; Floyd et al., 2002). […] Sham controls underwent craniectomy without percussion.
Spontaneous forelimb use (SFU) was quantified and spontaneous vertical exploration (SVE) was quantified during 7 days post-TBI. SFU measures sensorimotor asymmetry (Schallert et al., 2000) whereas SVE measures not only vestibulomotor function but also time spent in exploratory activity.

COc1ccc(Cl)cc1C(=O)NCCc1ccc(S(=O)(=O)NC(=O)NC2CCCCC2)cc1 [glibenclamide]
protein (IgG) endocytosis by neurons [1]: essentially absent
caspase-3 activation in the PCA ([1]; 5 rats): absent in ⅘ rats and was minimal in the fifth
ZO-1 localization in PCA endothelium ([1]; vs vehicle): significantly reduced cytoplasmic localization and restored intercellular localization
caspase-3 activation in parenchymal tissues ([1]; vs vehicle): significantly reduced
local inflammation (TNFα, p65 immunolabeling) ([1]; vs vehicle): significantly reduced
reactive astrocytosis (GFAP immunolabeling) ([1]; vs vehicle): significantly reduced
spontaneous vertical exploration (SVE) (rats with percussion-TBI; 1, 2 and 7 days post-TBI, vs controls): significantly greater SVE scores
spontaneous use of forelimb contralateral to injury (rats with percussion-TBI; 2 days post-TBI, controls 3.5±3.5%, P=0.05): 16.5±3.4%
